Our source for the IC50 values is patent US20070004660A1, “Synergistic Modulation of Flt3 Kinase Using Alkylquinolines and Alkylquinazolines” (priority 2005, published 2007).

As usually defined, the IC50 is the concentration at which inhibition is half-maximal. Read a low IC50 as higher potency.

The target of this assay is T1, wild-type FLT3 receptor (Homo sapiens, UniProt P36888).
T1 construct: host or cells: Baf3 (murine B cell lymphoma line), stably transfected
T1 sequence (P36888 27-993): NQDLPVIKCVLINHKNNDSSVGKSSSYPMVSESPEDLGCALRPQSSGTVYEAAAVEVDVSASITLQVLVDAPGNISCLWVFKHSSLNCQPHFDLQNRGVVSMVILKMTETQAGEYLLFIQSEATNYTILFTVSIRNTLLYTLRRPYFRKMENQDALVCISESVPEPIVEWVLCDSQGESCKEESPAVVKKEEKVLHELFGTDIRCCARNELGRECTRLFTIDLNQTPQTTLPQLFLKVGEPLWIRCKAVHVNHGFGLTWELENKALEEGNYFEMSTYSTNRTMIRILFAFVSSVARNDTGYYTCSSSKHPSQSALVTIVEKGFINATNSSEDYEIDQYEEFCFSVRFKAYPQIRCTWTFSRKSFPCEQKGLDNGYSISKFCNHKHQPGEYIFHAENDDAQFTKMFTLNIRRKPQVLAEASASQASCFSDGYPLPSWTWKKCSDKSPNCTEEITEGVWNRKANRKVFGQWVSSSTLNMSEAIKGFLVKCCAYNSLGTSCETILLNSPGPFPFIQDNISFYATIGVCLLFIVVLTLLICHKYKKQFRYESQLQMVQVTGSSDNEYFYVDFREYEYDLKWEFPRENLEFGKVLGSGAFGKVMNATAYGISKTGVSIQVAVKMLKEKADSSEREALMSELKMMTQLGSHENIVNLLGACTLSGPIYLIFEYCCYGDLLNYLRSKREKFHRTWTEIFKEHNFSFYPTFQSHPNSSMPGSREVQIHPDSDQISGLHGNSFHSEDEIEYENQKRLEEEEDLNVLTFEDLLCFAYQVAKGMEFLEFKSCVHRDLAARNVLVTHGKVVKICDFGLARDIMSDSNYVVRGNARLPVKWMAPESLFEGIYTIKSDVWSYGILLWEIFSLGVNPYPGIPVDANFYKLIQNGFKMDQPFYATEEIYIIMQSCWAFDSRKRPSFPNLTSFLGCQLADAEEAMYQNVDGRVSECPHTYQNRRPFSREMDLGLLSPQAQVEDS
The experiment in a line: Cell-based FLT3 receptor ELISA (FLT ligand-induced phosphorylation in Baf3 FLT3 cells). The conditions noted are these: 100 ng/mL Flt ligand, uncertainty ±20%. The method, then:
Specific cellular inhibition of FLT ligand-induced wild-type FLT3 phosphorylation was measured in the following manner: Baf3 FLT3 cells overexpressing the FLT3 receptor were obtained from Dr. Michael Heinrich (Oregon Health and Sciences University). The Baf3 FLT3 cell lines were created by stable transfection of parental Baf3 cells (a murine B cell lymphoma line dependent on the cytokine IL-3 for growth) with wild-type FLT3. Cells were selected for their ability to grow in the absence of IL-3 and in the presence of FLT3 ligand. Baf3 cells were maintained in RPMI 1640 with 10% FBS, penn/strep and 10 ng/ml FLT ligand at 37° C., 5% CO2. To measure direct inhibition of the wild-type FLT3 receptor activity and phosphorylation a sandwich ELISA method was developed similar to those developed for other RTKs (see Sadick, M D, Sliwkowski, M X, Nuijens, A, Bald, L, Chiang, N, Lofgren, J A, Wong W L T. Analysis of Heregulin-Induced ErbB2 Phosphorylation with a High-Throughput Kinase Receptor Activation Enzyme-Linked Immunsorbent Assay, Analytical Biochemistry. 1996; 235:207-214 and Baumann C A, Zeng L, Donatelli R R, Maroney A C. Development of a quantitative, high-throughput cell-based enzyme-linked immunosorbent assay for detection of colony-stimulating factor-1 receptor tyrosine kinase inhibitors. J Biochem Biophys Methods. 2004; 60:69-79.). 200 μL of Baf3FLT3 cells (1×10^6 /mL) were plated in 96 well dishes in RPMI 1640 with 0.5% serum and 0.01 ng/mL IL-3 for 16 hours prior to 1 hour compound or DMSO vehicle incubation. Cells were treated with 100 ng/mL Flt ligand (R&D Systems Cat# 308-FK) for 10 min. at 37° C. Cells were pelleted, washed and lysed in 100 ul lysis buffer (50 mM Hepes, 150 mM NaCl, 10% Glycerol, 1% Triton-X-100, 10 mM NaF, 1 mM EDTA, 1.5 mM MgCl2, 10 mM NaPyrophosphate) supplemented with phosphatase (Sigma Cat# P2850) and protease inhibitors (Sigma Cat #P8340). Lysates were cleared by centrifugation at 1000×g for 5 minutes at 4° C. Cell lysates were transferred to white wall 96 well microtiter (Costar #9018) plates coated with 50 ng/well anti-FLT3 antibody (Santa Cruz Cat# sc-480) and blocked with SeaBlock reagent (Pierce Cat#37527). Lysates were incubated at 4° C. for 2 hours. Plates were washed 3× with 200 ul/well PBS/0.1% Triton-X-100. Plates were then incubated with 1:8000 dilution of HRP-conjugated anti-phosphotyrosine antibody (Clone 4G10, Upstate Biotechnology Cat#16-105) for 1 hour at room temperature. Plates were washed 3× with 200 ul/well PBS/0.1% Triton-X-100. Signal detection with Super Signal Pico reagent (Pierce Cat#37070) was done according to manufacturer's instruction with a Berthold microplate luminometer. All data points are an average of triplicate samples. […] Inhibition and IC50 data analysis was done with GraphPad Prism using a non-linear regression fit with a multiparamater, sigmoidal dose-response (variable slope) equation.
Background: In an ELISA, binding on a coated surface is turned into a signal by an enzyme label.
For `O=C(NCCCOc1ccc2c(C3CCN(C(=O)Nc4ccc(N5CCCC5)nc4)CC3)ncnc2c1)N1CCOCC1` [Example 112, Morpholine-4-carboxylic acid (3-{4-[1-(6-pyrrolidin-1-yl-pyridin-3-ylcarbamoyl)-piperidin-4-yl]-quinazolin-7-yloxy}-propyl)-amide], the 50% inhibitory concentration (IC50) is 79 nM.
The compound `CN1CCC(COc2ccc3c(C4CCN(C(=O)Nc5ccc(N6CCCC6)cc5)CC4)ncnc3c2)CC1` [Example 109, 4-[7-(1-Methyl-piperidin-4-ylmethoxy)-quinazolin-4-yl]-piperidine-1-carboxylic acid (4-pyrrolidin-1-yl-phenyl)-amide] showed an IC50 of 10 nM.
The same measure for `COc1cc2ncnc(C3CCN(C(=O)Nc4ccc(C5=CCN(C(=O)OC(C)(C)C)CC5)cc4)CC3)c2cc1OC` [Example 61, 4-(4-{[4-(6,7-Dimethoxy-quinazolin-4-yl)-piperidine-1-carbonyl]-amino}-phenyl)-3,6-dihydro-2H-pyridine-1-carboxylic acid tert-butyl ester]: 1800 nM; for `CC(C)Oc1ccc(NC(=O)N2CCC(c3ncnc4cc(N(C)C)ccc34)CC2)cc1` [Example 100, 4-(7-Dimethylamino-quinazolin-4-yl)-piperidine-1-carboxylic acid (4-isopropoxy-phenyl)-amide]: 8 nM.
`COc1cc2ncnc(C3CCN(C(=O)Nc4ccc(OC(F)F)cc4)CC3)c2cc1OC` [Example 51, 4-(6,7-Dimethoxy-quinazolin-4-yl)-piperidine-1-carboxylic acid (4-difluoromethoxy-phenyl)-amide] showed an IC50 of 542 nM.
In the case of `O=C(Nc1ccc(N2CCOCC2)cc1)N1CCC(c2ncnc3cc(OCCCN4CCC[C@H]4CO)ccc23)CC1` [Example 119, (S)-4-{7-[3-(2-Hydroxymethyl-pyrrolidin-1-yl)-propoxy]-quinazolin-4-yl}-piperidine-1-carboxylic acid (4-morpholin-4-yl-phenyl)-amide], the half-maximal inhibitory concentration (IC50) stood at 37 nM.
`CN1CCN(CCCOc2ccc3c(C4CCN(C(=O)Nc5ccc(OC6CCCC6)nc5)CC4)ncnc3c2)CC1` [Example 82, 4-{7-[3-(4-Methyl-piperazin-1-yl)-propoxy]-quinazolin-4-yl}-piperidine-1-carboxylic acid (6-cyclopentyloxy-pyridin-3-yl)-amide] had an IC50 of 63 nM.
For the compound `COc1cc2ncnc(C3CCN(C(=O)Nc4ccc(C(C)C)cc4)CC3)c2cc1OC` [Example 4, 4-(6,7-Dimethoxy-quinazolin-4-yl)-piperidine-1-carboxylic acid (4-isopropyl-phenyl)-amide], half-maximal inhibition (IC50) was put at 56 nM.
In the case of `CN1CCN(CCCOc2ccc3c(C4CCN(C(=O)Nc5ccc(N6CCOCC6)cc5)CC4)ncnc3c2)CC1` [Example 73, 4-{7-[3-(4-Methyl-piperazin-1-yl)-propoxy]-quinazolin-4-yl}-piperidine-1-carboxylic acid (4-morpholin-4-yl-phenyl)-amide] it was 92 nM; in that of `CC(=O)N1CCN(CCOc2ccc3c(C4CCN(C(=O)Nc5ccc(N6CCOCC6)cc5)CC4)ncnc3c2)CC1` [Example 97, 4-{7-[2-(4-Acetyl-piperazin-1-yl)-ethoxy]-quinazolin-4-yl}-piperidine-1-carboxylic acid (4-morpholin-4-yl-phenyl)-amide], 36 nM.
As for `CCN1CCN(CCCOc2ccc3c(C4CCN(C(=O)Nc5ccc(N6CCOCC6)cc5)CC4)ncnc3c2)CC1` [Example 115, 4-{7-[3-(4-Ethyl-piperazin-1-yl)-propoxy]-quinazolin-4-yl}-piperidine-1-carboxylic acid (4-morpholin-4-yl-phenyl)-amide], half-maximal inhibition (IC50) was put at 9 nM.
With `O=C1CCCN1CCCOc1ccc2c(C3CCN(C(=O)Nc4ccc(N5CCOCC5)nc4)CC3)ncnc2c1` [Example 72, 4-{7-[3-(2-Oxo-pyrrolidin-1-yl)-propoxy]-quinazolin-4-yl}-piperidine-1-carboxylic acid (6-morpholin-4-yl-pyridin-3-yl)-amide], it took 28 nM to reach half-maximal inhibition (IC50).
The compound `COc1cc2ncnc(C3CCN(C(=O)Nc4ccc(OC5CCCC5)nc4)CC3)c2cc1OC` [Example 69, 4-(6,7-Dimethoxy-quinazolin-4-yl)-piperidine-1-carboxylic acid (6-cyclopentyloxy-pyridin-3-yl)-amide] had a half-maximal inhibitory concentration (IC50) of 29 nM.
On to `CS(=O)(=O)OCCCOc1ccc2c(C3CCN(C(=O)Nc4ccc(N5CCOCC5)cc4)CC3)ncnc2c1` [Example 122, Methanesulfonic acid 3-{4-[1-(4-morpholin-4-yl-phenylcarbamoyl)-piperidin-4-yl]-quinazolin-7-yloxy}-propyl ester], for which the IC50 came out at 110 nM.
`O=C1CCCN1CCCOc1ccc2c(C3CCN(C(=O)Nc4ccc(N5CCOCC5)cc4)CC3)ncnc2c1` [Example 68, 4-{7-[3-(2-Oxo-pyrrolidin-1-yl)-propoxy]-quinazolin-4-yl}-piperidine-1-carboxylic acid (4-morpholin-4-yl-phenyl)-amide] had an IC50 of 29 nM.
With `CCCCc1ccc(NC(=O)N2CCC(c3ncnc4cc(OC)c(OC)cc34)CC2)cc1` [Example 43, 4-(6,7-Dimethoxy-quinazolin-4-yl)-piperidine-1-carboxylic acid (4-butyl-phenyl)-amide], the half-inhibitory concentration (IC50) turned out to be 59 nM.
`COc1cc2ncnc(C3CCN(C(=O)Nc4ccc(-c5ccco5)cc4)CC3)c2cc1OC` [Example 59, 4-(6,7-Dimethoxy-quinazolin-4-yl)-piperidine-1-carboxylic acid (4-furan-2-yl-phenyl)-amide] yielded a half-inhibitory concentration (IC50) of 27 nM.
The same measure for `CN1CCC(COc2ccc3c(C4CCN(C(=O)Nc5ccc(OC6CCC6)nc5)CC4)ncnc3c2)CC1` [Example 107, 4-[7-(1-Methyl-piperidin-4-ylmethoxy)-quinazolin-4-yl]-piperidine-1-carboxylic acid (6-cyclobutoxy-pyridin-3-yl)-amide]: 21 nM; for `COc1cc2ncnc(C3CCN(C(=O)Nc4ccc(C(C)O)cc4)CC3)c2cc1OC` (stereo not drawn) [Example 55, 4-(6,7-Dimethoxy-quinazolin-4-yl)-piperidine-1-carboxylic acid [4-(1-hydroxy-ethyl)-phenyl]-amide]: 1000 nM.
The compound `CC(C)Oc1ccc(NC(=O)N2CCC(c3ncnc4cc(OCCN5CCOC5=O)ccc34)CC2)cc1` [Example 79, 4-{7-[2-(2-Oxo-oxazolidin-3-yl)-ethoxy]-quinazolin-4-yl}-piperidine-1-carboxylic acid (4-isopropoxy-phenyl)-amide] showed a concentration for half-maximal inhibition (IC50) of 17 nM.
In the case of `CC(C)Oc1ccc(NC(=O)N2CCC(c3ncnc4ccc(I)cc34)CC2)cc1` [Example 11, 4-(6-Iodo-quinazolin-4-yl)-piperidine-1-carboxylic acid (4-isopropoxy-phenyl)-amide] it was 1400 nM.
